Results: ChEMBL document CHEMBL4507260 (2021)
Activity calls are given as the source filed them.

What was measured:
[1] = target: Aurora kinase C (Homo sapiens) (UniProt Q9UQB9); conditions: Compound concentration 1000.0 nM
[2] = target: Serine/threonine-protein kinase pim-1 (Homo sapiens) (UniProt P11309); conditions: Compound concentration 1000.0 nM
[3] = target: Angiopoietin-1 receptor (Homo sapiens) (UniProt Q02763); conditions: Compound concentration 1000.0 nM
[4] = target: D(3) dopamine receptor (Homo sapiens) (UniProt P35462); conditions: Compound concentration 10.0 uM
Description: D3 CEREP ligand profiling

[5] = target: Type-1 angiotensin II receptor (Homo sapiens) (UniProt P30556); conditions: Compound concentration 10.0 uM
Description: AT1 CEREP ligand profiling

[6] = target: Natriuretic peptides A (Homo sapiens) (UniProt P01160); conditions: Compound concentration 10.0 uM
Description: ANP CEREP ligand profiling

[7] = target: Dual specificity mitogen-activated protein kinase kinase 6 (Homo sapiens) (UniProt P52564); conditions: Compound concentration 1000.0 nM
[8] = target: D(1B) dopamine receptor (Homo sapiens) (UniProt P21918); conditions: Compound concentration 10.0 uM
Description: D5 CEREP ligand profiling

[9] = target: cGMP-dependent protein kinase 1 (Homo sapiens) (UniProt Q13976); conditions: Compound concentration 1000.0 nM
[10] = target: Adenosine receptor A2a (Homo sapiens) (UniProt P29274); test: A2A CEREP ligand profiling; conditions: Compound concentration 10.0 uM
[11] = target: Mu-type opioid receptor (Homo sapiens) (UniProt P35372); test: mu CEREP ligand profiling; conditions: Compound concentration 10.0 uM
[12] = target: Nociceptin receptor (Homo sapiens) (UniProt P41146); conditions: Compound concentration 10.0 uM
Description: ORL1 CEREP ligand profiling

[13] = target: Serine/threonine-protein kinase WNK3 (Homo sapiens) (UniProt Q9BYP7); conditions: Compound concentration 1000.0 nM
[14] = target: Tyrosine-protein kinase TXK (Homo sapiens) (UniProt P42681); conditions: Compound concentration 1000.0 nM
[15] = target: cAMP-dependent protein kinase catalytic subunit PRKX (Homo sapiens) (UniProt P51817); conditions: Compound concentration 1000.0 nM
[16] = target: Cannabinoid receptor 1 (Homo sapiens) (UniProt P21554); conditions: Compound concentration 10.0 uM
Description: CB1 CEREP ligand profiling

[17] = target: 5-hydroxytryptamine receptor 2A (Homo sapiens) (UniProt P28223); conditions: Compound concentration 10.0 uM
Description: 5-HT2A CEREP ligand profiling

[18] = target: Gastrin/cholecystokinin type B receptor (Homo sapiens) (UniProt P32239); test: CCKB (CCK2) CEREP ligand profiling; conditions: Compound concentration 10.0 uM
[19] = target: Serine/threonine-protein kinase Nek10 (Homo sapiens) (UniProt Q6ZWH5); conditions: Compound concentration 1000.0 nM
[20] = target: Sodium-dependent noradrenaline transporter (Homo sapiens) (UniProt P23975); conditions: Compound concentration 10.0 uM
Description: NE transporter CEREP ligand profiling

[21] = target: Phosphatidylinositol 4,5-bisphosphate 3-kinase catalytic subunit alpha isoform (Homo sapiens) (UniProt P42336); conditions: Compound concentration 1000.0 nM
D(4) dopamine receptor [22] = target: D(4) dopamine receptor (Homo sapiens, UniProt P21917); test: Radioligand assay (DRD4.7)
[23] = target: Mitogen-activated protein kinase kinase kinase 19 (Homo sapiens) (UniProt Q56UN5); conditions: Compound concentration 1000.0 nM
[24] = system: Tyrosine-protein kinase ABL1 (Homo sapiens), P00519 [Q252H]; conditions: Compound concentration 1000.0 nM
[25] = target: Voltage-gated L-type calcium channel (Ca2+ channel) (Homo sapiens, UniProt O60840+Q01668+Q13698+Q13936); test: Ca2+ channel CEREP ligand profiling; assay type: protein assay; conditions: compound concentration 10 uM
[26] = target: D(1A) dopamine receptor (Homo sapiens) (UniProt P21728); test: D1 CEREP ligand profiling; conditions: Compound concentration 10.0 uM
[27] = target: 5-hydroxytryptamine receptor 2C (Homo sapiens) (UniProt P28335); conditions: Compound concentration 10.0 uM
Description: 5-HT2C CEREP ligand profiling

[28] = target: Substance-P receptor (Homo sapiens) (UniProt P25103); conditions: Compound concentration 10.0 uM
Description: NK1 CEREP ligand profiling

[29] = target: Thromboxane A2 receptor (Homo sapiens) (UniProt P21731); conditions: Compound concentration 10.0 uM
Description: TXA2/PGH2 CEREP ligand profiling

[30] = target: GABA-A receptor; anion channel (Homo sapiens) (UniProt P14867+P47870+P18507+P28472+P48169+Q99928+Q9UN88+P34903+O00591+O14764+Q8N1C3+P18505+P78334+P47869+P31644+Q16445); conditions: Compound concentration 10.0 uM
Description: Cl- channel CEREP ligand profiling

[31] = target: Muscarinic acetylcholine receptor M2 (Homo sapiens) (UniProt P08172); conditions: Compound concentration 10.0 uM
Description: M2 CEREP ligand profiling

[32] = target: Prostacyclin receptor (Homo sapiens) (UniProt P43119); conditions: Compound concentration 10.0 uM
Description: PGI2 CEREP ligand profiling

[33] = system: Hepatocyte growth factor receptor (Homo sapiens), P08581 [Y1235D]; conditions: Compound concentration 1000.0 nM
[34] = target: Sodium-dependent dopamine transporter (Homo sapiens) (UniProt Q01959); test: DA transporter CEREP ligand profiling; conditions: Compound concentration 10.0 uM
D(4) dopamine receptor [35] = target: T1, D(4) dopamine receptor (Homo sapiens, UniProt P21917); test: Radioligand assay using 3[H] A-369508
T1 sequence (P21917 whole entry): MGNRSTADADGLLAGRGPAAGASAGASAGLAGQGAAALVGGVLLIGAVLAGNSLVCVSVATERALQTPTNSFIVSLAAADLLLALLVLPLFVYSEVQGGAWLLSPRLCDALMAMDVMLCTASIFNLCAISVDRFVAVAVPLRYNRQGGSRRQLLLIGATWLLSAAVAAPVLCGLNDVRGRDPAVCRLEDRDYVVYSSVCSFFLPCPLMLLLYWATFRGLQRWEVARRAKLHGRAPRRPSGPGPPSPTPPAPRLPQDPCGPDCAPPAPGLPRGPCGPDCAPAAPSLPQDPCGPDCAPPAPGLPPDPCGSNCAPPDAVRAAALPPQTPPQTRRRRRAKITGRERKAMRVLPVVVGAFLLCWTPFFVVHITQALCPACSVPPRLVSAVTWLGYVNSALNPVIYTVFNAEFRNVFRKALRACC

[36] = target: Tyrosine-protein kinase Lyn (Homo sapiens) (UniProt P07948); conditions: Compound concentration 1000.0 nM
D(4) dopamine receptor [37] = target: T1, D(4) dopamine receptor; test: Radioligand assay (DRD4.4)
[38] = target: Neuropeptide Y receptor type 2 (Homo sapiens) (UniProt P49146); conditions: Compound concentration 10.0 uM
Description: Y2 CEREP ligand profiling

[39] = target: 5-hydroxytryptamine receptor 5A (Homo sapiens) (UniProt P47898); test: 5-HT5A CEREP ligand profiling; conditions: Compound concentration 10.0 uM
[40] = target: Phosphorylase b kinase regulatory subunit alpha, liver isoform (Homo sapiens) (UniProt P46019); conditions: Compound concentration 1000.0 nM
D(4) dopamine receptor [41] = target: T1, D(4) dopamine receptor; test: Cellular FLIPR (fluorometric imaging plate reader) assay

Chain of Mitogen-activated protein kinase kinase kinase 19 (Homo sapiens) (Q56UN5 whole entry): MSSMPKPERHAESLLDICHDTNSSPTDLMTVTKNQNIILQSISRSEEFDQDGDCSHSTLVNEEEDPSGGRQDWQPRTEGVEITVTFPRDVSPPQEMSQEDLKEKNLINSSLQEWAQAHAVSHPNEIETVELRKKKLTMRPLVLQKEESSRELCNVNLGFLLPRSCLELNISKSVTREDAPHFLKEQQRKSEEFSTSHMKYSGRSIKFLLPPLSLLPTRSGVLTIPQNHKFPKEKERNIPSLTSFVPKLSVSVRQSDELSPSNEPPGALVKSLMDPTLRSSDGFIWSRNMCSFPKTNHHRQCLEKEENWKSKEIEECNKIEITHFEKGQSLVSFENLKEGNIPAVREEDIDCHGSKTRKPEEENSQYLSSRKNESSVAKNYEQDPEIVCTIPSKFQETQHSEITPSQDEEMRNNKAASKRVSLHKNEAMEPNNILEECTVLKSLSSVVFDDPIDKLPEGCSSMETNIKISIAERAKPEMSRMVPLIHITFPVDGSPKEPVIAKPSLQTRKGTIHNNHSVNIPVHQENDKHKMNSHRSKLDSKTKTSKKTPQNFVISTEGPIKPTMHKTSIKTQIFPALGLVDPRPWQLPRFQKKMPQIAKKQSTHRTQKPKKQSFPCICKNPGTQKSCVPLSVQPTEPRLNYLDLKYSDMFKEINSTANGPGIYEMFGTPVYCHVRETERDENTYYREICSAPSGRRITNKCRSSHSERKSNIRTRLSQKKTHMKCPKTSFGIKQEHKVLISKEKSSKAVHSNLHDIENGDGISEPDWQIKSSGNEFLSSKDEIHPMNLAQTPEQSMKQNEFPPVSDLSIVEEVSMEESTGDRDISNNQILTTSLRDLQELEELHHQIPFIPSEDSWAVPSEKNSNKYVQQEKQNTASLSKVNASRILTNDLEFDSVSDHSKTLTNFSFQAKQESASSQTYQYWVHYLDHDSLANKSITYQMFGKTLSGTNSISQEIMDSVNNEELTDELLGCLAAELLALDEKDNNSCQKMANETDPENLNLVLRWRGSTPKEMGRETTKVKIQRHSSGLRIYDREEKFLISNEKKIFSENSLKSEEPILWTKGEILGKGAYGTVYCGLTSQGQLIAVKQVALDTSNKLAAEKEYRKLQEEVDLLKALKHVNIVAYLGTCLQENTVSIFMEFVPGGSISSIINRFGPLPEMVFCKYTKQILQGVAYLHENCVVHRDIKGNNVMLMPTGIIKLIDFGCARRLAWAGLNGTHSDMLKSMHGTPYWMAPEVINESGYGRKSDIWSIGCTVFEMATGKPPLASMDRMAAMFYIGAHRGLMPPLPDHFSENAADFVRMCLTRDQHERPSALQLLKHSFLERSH
Chain of cAMP-dependent protein kinase catalytic subunit PRKX (Homo sapiens) (P51817 whole entry): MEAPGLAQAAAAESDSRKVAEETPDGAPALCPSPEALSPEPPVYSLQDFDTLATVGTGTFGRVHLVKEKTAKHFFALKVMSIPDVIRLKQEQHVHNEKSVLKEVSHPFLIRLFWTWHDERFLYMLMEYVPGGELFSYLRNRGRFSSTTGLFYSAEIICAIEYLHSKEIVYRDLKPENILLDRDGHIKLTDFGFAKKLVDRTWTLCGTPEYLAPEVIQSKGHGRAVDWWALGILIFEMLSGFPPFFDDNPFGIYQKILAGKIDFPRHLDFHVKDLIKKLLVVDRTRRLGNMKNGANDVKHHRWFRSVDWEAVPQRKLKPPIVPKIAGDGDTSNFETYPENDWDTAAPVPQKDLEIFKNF
Chain of Dual specificity mitogen-activated protein kinase kinase 6 (Homo sapiens) (P52564 whole entry): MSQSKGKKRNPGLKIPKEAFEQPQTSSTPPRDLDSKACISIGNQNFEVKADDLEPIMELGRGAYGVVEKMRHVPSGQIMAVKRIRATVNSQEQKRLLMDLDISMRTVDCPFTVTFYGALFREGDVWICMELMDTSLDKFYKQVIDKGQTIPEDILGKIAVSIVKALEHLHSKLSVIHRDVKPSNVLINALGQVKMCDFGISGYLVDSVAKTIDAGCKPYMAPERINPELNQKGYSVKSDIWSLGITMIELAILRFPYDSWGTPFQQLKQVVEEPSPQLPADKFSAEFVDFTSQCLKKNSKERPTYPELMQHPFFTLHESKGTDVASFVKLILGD
Chain of Angiopoietin-1 receptor (Homo sapiens) (Q02763 whole entry): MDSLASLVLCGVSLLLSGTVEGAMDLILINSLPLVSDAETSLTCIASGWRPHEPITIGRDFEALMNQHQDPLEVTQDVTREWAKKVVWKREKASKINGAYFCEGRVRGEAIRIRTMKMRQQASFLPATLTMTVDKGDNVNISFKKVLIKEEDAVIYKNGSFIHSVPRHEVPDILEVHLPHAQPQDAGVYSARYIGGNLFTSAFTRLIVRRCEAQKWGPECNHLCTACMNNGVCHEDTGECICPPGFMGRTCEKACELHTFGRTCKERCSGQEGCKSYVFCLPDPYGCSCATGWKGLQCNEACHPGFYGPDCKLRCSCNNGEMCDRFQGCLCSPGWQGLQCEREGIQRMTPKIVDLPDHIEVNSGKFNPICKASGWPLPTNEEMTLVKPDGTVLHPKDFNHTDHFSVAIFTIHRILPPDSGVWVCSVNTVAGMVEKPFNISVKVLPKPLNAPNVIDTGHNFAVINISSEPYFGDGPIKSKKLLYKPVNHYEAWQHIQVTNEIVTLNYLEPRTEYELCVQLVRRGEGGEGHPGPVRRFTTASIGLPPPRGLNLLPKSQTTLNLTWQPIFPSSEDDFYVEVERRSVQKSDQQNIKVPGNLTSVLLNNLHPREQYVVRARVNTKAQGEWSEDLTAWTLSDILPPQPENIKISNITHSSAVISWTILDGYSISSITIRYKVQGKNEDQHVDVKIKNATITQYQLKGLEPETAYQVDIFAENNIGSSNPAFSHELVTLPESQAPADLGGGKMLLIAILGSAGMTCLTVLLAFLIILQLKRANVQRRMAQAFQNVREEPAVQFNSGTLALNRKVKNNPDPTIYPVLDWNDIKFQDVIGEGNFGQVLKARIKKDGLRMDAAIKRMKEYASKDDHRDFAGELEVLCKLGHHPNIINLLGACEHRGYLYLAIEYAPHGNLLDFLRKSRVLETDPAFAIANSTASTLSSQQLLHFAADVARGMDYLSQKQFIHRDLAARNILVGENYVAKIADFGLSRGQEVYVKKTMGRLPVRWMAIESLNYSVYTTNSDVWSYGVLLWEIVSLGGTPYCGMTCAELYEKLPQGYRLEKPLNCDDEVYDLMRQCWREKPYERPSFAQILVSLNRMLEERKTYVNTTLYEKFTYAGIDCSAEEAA
Chain of Aurora kinase C (Homo sapiens) (Q9UQB9 whole entry): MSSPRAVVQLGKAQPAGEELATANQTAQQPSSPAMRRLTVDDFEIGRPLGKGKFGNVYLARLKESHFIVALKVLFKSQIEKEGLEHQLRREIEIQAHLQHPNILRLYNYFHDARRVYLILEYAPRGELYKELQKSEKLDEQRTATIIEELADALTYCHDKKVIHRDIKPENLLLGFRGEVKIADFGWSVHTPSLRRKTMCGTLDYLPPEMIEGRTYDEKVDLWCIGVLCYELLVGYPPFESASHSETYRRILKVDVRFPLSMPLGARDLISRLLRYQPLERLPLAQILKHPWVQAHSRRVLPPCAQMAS
Chain of Tyrosine-protein kinase Lyn (Homo sapiens) (P07948 2-512 limits assumed): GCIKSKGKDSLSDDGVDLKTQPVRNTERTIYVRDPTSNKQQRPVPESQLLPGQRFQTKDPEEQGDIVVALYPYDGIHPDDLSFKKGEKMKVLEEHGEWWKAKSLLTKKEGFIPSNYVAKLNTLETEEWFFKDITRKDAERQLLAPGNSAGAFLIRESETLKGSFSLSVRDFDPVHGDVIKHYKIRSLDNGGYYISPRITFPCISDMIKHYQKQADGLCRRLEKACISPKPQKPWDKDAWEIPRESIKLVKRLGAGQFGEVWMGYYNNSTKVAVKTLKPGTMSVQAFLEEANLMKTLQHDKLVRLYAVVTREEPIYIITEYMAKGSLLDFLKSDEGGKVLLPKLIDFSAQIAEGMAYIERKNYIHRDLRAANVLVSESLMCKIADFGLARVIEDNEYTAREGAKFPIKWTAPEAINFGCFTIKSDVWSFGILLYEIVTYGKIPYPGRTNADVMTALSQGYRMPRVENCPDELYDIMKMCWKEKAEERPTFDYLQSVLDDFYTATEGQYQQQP
Chain of Phosphatidylinositol 4,5-bisphosphate 3-kinase catalytic subunit alpha isoform (Homo sapiens) (P42336 whole entry, canonical isoform): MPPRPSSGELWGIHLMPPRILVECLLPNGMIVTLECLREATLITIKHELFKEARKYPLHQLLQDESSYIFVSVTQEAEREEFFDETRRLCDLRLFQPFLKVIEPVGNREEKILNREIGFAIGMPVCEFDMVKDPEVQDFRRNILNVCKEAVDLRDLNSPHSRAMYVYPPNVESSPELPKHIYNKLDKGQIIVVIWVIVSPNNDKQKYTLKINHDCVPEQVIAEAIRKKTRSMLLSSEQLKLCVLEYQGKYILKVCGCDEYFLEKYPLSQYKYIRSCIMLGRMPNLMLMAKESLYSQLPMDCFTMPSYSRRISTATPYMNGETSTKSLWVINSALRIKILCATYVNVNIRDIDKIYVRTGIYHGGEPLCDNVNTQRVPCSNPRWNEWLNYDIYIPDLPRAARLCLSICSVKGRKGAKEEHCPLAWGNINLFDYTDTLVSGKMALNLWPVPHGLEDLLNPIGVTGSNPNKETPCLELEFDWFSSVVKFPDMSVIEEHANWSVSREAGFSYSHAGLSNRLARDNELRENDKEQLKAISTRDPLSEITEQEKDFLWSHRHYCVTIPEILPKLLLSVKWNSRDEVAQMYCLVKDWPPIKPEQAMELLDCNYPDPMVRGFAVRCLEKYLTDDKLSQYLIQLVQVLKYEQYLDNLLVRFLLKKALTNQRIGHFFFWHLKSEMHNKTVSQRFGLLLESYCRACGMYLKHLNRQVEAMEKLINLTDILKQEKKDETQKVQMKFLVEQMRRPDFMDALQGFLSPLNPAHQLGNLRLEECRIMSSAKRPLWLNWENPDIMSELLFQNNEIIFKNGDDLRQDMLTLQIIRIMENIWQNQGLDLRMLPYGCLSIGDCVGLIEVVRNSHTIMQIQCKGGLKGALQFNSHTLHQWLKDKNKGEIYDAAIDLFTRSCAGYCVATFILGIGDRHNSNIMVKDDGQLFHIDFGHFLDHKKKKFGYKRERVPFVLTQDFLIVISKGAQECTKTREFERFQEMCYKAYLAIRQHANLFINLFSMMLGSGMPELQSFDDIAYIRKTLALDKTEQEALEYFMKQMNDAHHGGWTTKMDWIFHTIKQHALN

c1ccc(N2CCN(Cc3nc4ccccc4[nH]3)CC2)nc1 [ABT-724]
active: Ki (D(4) dopamine receptor [22]) 46.8 nM | Ki (D(4) dopamine receptor [35]) 57.5 nM | Ki (D(4) dopamine receptor [37]) 63.6 nM
inactive: residual activity [1] 100% | residual activity [2] 90% | residual activity [3] 94% | inhibition [4] < 10% | inhibition [5] < 10% | inhibition [6] < 10% | residual activity [7] 100% | inhibition [8] < 10% | residual activity [9] 100% | inhibition [10] 28% | inhibition [11] 51% | inhibition [12] < 10% | residual activity [13] 100% | residual activity [14] 95% | residual activity [15] 100% | inhibition [16] < 10% | inhibition [17] < 10% | inhibition [18] 17% | residual activity [19] 100% | inhibition [20] < 10% | residual activity [21] 100% | residual activity [23] 100% | residual activity [24] 100% | inhibition [26] 24% | inhibition [27] 10% | inhibition [28] < 10% | inhibition [29] < 10% | inhibition [30] < 10% | inhibition [31] < 10% | inhibition [32] < 10% | residual activity [33] 100% | inhibition [34] 11% | residual activity [36] 100% | inhibition [38] < 10% | inhibition [39] 21%
< 10% (not active): inhibition at 10 µM [25]

CSc1cccnc1N1CCN(Cc2nc3ccccc3[nH]2)CC1 [A-769]
inactive: residual activity [1] 100% | residual activity [2] 100% | residual activity [3] 100% | residual activity [7] 100% | residual activity [9] 100% | residual activity [40] 100% | residual activity [13] 100% | residual activity [14] 100% | residual activity [15] 100% | residual activity [19] 78% | residual activity [21] 69% | residual activity [23] 72% | residual activity [24] 71% | residual activity [33] 89% | residual activity [36] 95%
> 10000 nM (not active): IC50 (D(4) dopamine receptor [41])
